Each structure is given as a SMILES string. Activity calls are given as the source filed them. Cut-off read from the data, not from the text of the source: actives have a measured IC50 and inactives only a lower limit.

The IC50 is the concentration at which inhibition is half-maximal.

Sequence of Envelope glycoprotein gp160 (Q6QLK5 whole entry, the tested form may be a part): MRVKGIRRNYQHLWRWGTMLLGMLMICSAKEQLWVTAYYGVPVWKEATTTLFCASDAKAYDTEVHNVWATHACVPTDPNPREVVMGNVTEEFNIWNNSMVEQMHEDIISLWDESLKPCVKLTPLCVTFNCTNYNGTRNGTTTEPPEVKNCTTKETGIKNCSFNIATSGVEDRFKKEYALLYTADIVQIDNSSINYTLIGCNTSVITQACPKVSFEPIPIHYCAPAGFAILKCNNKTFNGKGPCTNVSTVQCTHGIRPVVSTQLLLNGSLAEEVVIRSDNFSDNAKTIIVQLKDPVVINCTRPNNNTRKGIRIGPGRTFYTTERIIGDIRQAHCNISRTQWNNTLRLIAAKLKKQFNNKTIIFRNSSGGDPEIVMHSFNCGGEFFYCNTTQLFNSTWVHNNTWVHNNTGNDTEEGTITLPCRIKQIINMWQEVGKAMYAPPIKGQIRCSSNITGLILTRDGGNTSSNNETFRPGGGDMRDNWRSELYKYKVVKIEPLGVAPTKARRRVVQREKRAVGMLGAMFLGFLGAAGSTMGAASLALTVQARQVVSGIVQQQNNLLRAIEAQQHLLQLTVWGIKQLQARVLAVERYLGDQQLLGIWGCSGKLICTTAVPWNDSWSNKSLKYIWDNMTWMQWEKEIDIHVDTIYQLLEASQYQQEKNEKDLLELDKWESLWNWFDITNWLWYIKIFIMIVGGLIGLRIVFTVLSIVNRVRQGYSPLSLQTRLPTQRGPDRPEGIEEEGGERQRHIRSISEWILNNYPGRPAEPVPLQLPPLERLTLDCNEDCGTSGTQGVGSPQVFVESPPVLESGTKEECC

The assay concerns the target Envelope glycoprotein gp160 (Human immunodeficiency virus 1, UniProt Q6QLK5). The assay can be described thus: cell-free HIV fusion peptide-binding blockers – biochemical, uHTS, fluorescence dequenching, […] (AID 1986).
`O=C1NN(c2ccc(Cl)c(Cl)c2)C(=O)/C1=C/c1cccc(OC(=O)c2cccs2)c1`: the IC50 is 11.8 µM (active).
On to `O=C(NC(=S)Nc1ccccc1C(=O)O)c1ccc(-c2ccc(Br)cc2)o1`, for which the IC50 was 18.5 µM (active).
The result for `O=C(O)c1ccc(NS(=O)(=O)c2ccc3c(c2)C2C=CCC2C(c2ccccc2F)N3)cc1` (centres undefined) reads 17.7 µM (active).
The result for `O=C(CCCN1C(=O)/C(=C/c2cccs2)SC1=S)Nc1ccc(O)c(C(=O)O)c1` reads 24.1 µM (active).
